According to the supplement of paper PMC12420376:

Tests used:
Assay in all cases: cell viability relative to untreated control (ex vivo patient spheroids); higher = less cytotoxic
Conditions in all cases: 72 h
[1] = test system: Gem059 (ex vivo spheroids of an HRD-negative high-grade serous ovarian cancer)
Description: (§1)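 Ex vivo 3D spheroid cultures from dissociated tumours of HGSOC patients (DET3CT platform) were treated for 72 h with dose matrices of carboplatin combined with birinapant or vorinostat (nM). Live (TMRM) and dead (POPO-1) cells were imaged and viability was expressed as % of untreated control.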

[2] = test system: Gem129 (ex vivo spheroids of an HRD-positive high-grade serous ovarian cancer)
Description: as §1

[3] = test system: Gem119 (ex vivo spheroids of an HRD-positive high-grade serous ovarian cancer)
Description: as §1

[4] = test system: Gem030 (ex vivo spheroids of an HRD-positive high-grade serous ovarian cancer)
Description: as §1

[5] = test system: Gem243 (ex vivo spheroids of an HRD-positive high-grade serous ovarian cancer)
Description: as §1

O=C(O)C1(C(=O)O)CCC1.[NH2-].[NH2-].[Pt+2] [Carboplatin] + CC[C@H](NC(=O)[C@H](C)NC)C(=O)N1C[C@@H](O)C[C@H]1Cc1c(-c2[nH]c3cc(F)ccc3c2C[C@@H]2C[C@H](O)CN2C(=O)[C@H](CC)NC(=O)[C@H](C)NC)[nH]c2cc(F)ccc12 [Birinapant]
cell viability [%]
Conditions	partner drug concentration 0 nM	partner drug concentration 0.1 nM	partner drug concentration 1 nM	partner drug concentration 10 nM	partner drug concentration 100 nM	partner drug concentration 1000 nM
[1], carboplatin concentration 10 nM	–	109	101	119	105	102
[1], carboplatin concentration 100 nM	–	99.2	99.2	122	97.4	106
[1], carboplatin concentration 1000 nM	–	89.4	109	117	106	118
[1], carboplatin concentration 10000 nM	100	102	99.8	97.5	112	99
[1], carboplatin concentration 100000 nM	77.4	82.5	97.3	79.6	85.4	90.7
[2], carboplatin concentration 10 nM	–	105	82.3	101	87.1	76.2
[2], carboplatin concentration 100 nM	–	94.9	97.3	96	89.5	96.1
[2], carboplatin concentration 1000 nM	–	96.4	100	92.5	86.2	73.2
[2], carboplatin concentration 10000 nM	80.4	86.7	95.8	86.7	90.5	67.4
[2], carboplatin concentration 100000 nM	57.5	57.3	31.2	29.8	27.8	19.6
[3], carboplatin concentration 10 nM	–	83.3	107	102	90.8	67.6
[3], carboplatin concentration 100 nM	–	83.6	112	74.4	90.8	66.8
[3], carboplatin concentration 1000 nM	–	111	107	100	117	86
[3], carboplatin concentration 10000 nM	112	96.4	72.9	116	110	81.3
[3], carboplatin concentration 100000 nM	75.9	65.3	86.1	54.4	69.5	62.6
[4], carboplatin concentration 10 nM	–	99.1	105	99.7	95.4	59.2
[4], carboplatin concentration 100 nM	–	106	115	102	92.5	60.8
[4], carboplatin concentration 1000 nM	–	104	91.7	101	88.9	59.8
[4], carboplatin concentration 10000 nM	105	102	99.6	94.2	90.1	59.3
[4], carboplatin concentration 100000 nM	52.2	60.7	68	68.4	47.1	27.3
[5], carboplatin concentration 10 nM	–	92.7	105	80.2	52.3	13.7
[5], carboplatin concentration 100 nM	–	108	105	84.7	41.3	15.9
[5], carboplatin concentration 1000 nM	–	95.4	94.8	93.9	45.3	15.2
[5], carboplatin concentration 10000 nM	89.9	90.9	77.3	82.9	42.4	13.9
[5], carboplatin concentration 100000 nM	23.6	28.8	24.9	14	7.4	6

O=C(O)C1(C(=O)O)CCC1.[NH2-].[NH2-].[Pt+2] [Carboplatin] + O=C(CCCCCCC(=O)Nc1ccccc1)NO [Vorinostat]
cell viability [%]
Conditions	partner drug concentration 0 nM	partner drug concentration 1 nM	partner drug concentration 10 nM	partner drug concentration 100 nM	partner drug concentration 1000 nM	partner drug concentration 10000 nM
[1], carboplatin concentration 10 nM	109	99.3	91.5	110	103	86.5
[1], carboplatin concentration 100 nM	107	102	105	114	102	95.8
[1], carboplatin concentration 1000 nM	91.5	107	104	96.5	110	94.4
[1], carboplatin concentration 10000 nM	100	103	116	101	114	95
[1], carboplatin concentration 100000 nM	77.4	81.7	81.9	71.5	85	71.2
[2], carboplatin concentration 10 nM	95.8	104	37.5	107	87.6	80.2
[2], carboplatin concentration 100 nM	82.8	104	102	97.6	91.9	77.7
[2], carboplatin concentration 1000 nM	86	109	108	98.1	81.2	77.3
[2], carboplatin concentration 10000 nM	80.4	97.8	90.4	90.4	87.5	59.6
[2], carboplatin concentration 100000 nM	57.5	35.8	41.7	33.9	25.8	3.4
[3], carboplatin concentration 10 nM	102	90	102	93.8	93	26.9
[3], carboplatin concentration 100 nM	124	105	103	118	94.6	45.7
[3], carboplatin concentration 1000 nM	99.4	110	92	110	92.7	30.3
[3], carboplatin concentration 10000 nM	112	93.7	96.1	70.3	100	17.2
[3], carboplatin concentration 100000 nM	75.9	50.1	81.2	44.7	58.9	9.6
[4], carboplatin concentration 10 nM	94	101	104	115	100	47.4
[4], carboplatin concentration 100 nM	102	108	107	98.2	101	40.2
[4], carboplatin concentration 1000 nM	107	110	115	105	106	41
[4], carboplatin concentration 10000 nM	105	116	102	111	91.1	40
[4], carboplatin concentration 100000 nM	52.2	87.2	69.8	65.9	67.5	17.9
[5], carboplatin concentration 10 nM	90.3	88.4	82.3	101	67.9	19.7
[5], carboplatin concentration 100 nM	87.3	98	91.7	90.8	74.3	13.3
[5], carboplatin concentration 1000 nM	107	105	47.4	101	68.9	10.1
[5], carboplatin concentration 10000 nM	89.9	95.3	101	104	42.1	10.4
[5], carboplatin concentration 100000 nM	23.6	21.6	17	11.3	7.3	6.7
